C=C1CCN([C@H](C)[C@](O)(Cn2cncn2)c2ccc(F)cc2F)CC1
solubility (mole fraction)
Conditions | 288.15 K | 293.15 K | 298.15 K | 303.15 K | 308.15 K
in DMF | 0.281 | 0.298 | 0.316 | 0.334 | 0.353
in THF | 0.321 | 0.335 | 0.351 | 0.367 | 0.382
in acetone | 0.243 | 0.261 | 0.28 | 0.301 | 0.321
in acetonitrile | 0.0874 | 0.109 | 0.136 | 0.168 | 0.204
in dichloromethane | 0.321 | 0.34 | 0.358 | 0.379 | 0.4
in ethanol | 0.122 | 0.144 | 0.172 | 0.203 | 0.242
in ethyl acetate | 0.231 | 0.251 | 0.272 | 0.297 | 0.321
in isopropanol | 0.0849 | 0.105 | 0.125 | 0.152 | 0.184
in methanol | 0.176 | 0.195 | 0.214 | 0.236 | 0.259
in n-butanol | 0.113 | 0.135 | 0.159 | 0.185 | 0.218
in n-propanol | 0.12 | 0.142 | 0.164 | 0.191 | 0.222
in propylene glycol | 0.0278 | 0.031 | 0.0343 | 0.0384 | 0.0424
in transcutol | 0.218 | 0.233 | 0.247 | 0.262 | 0.276
in water | 1.08e-06 | 1.4e-06 | 1.77e-06 | 2.29e-06 | 2.91e-06

Conditions | solubility (mole fraction)
in PEG-400, 288.15 K | 0.171
in PEG-400, 293.15 K | 0.182
in PEG-400, 298.15 K | 0.194
in PEG-400, 303.15 K | 0.206
in PEG-400, 308.15 K | 0.219

Reference: BigSolDB 2.1
